Columns and labels:
tumor cells = assay: Effect on the growth of a variety of tumor cells (summary of Table 1); type: cell-based; conditions: IC50 value of less than 100 μM was considered active
Method: (§1) Maintenance and Treatment of Cell Lines. Human HepG2 hepatocarcinoma cells and human U87MG glioma cells (ATCC, Manassas, Va.) were maintained in EMEM medium supplemented with 10% FBS (Hyclone, Logan, Utah). The human 1321N1 astrocytoma cells (European Collection of Cell Cultures, Sigma-Aldrich) were cultured in Dulbecco's modified Eagle's medium supplemented with 10% FBS and 2 mM L-glutamine. Human prostate carcinoma cell line PC3 was cultured in F-12K medium (Life Technologies) supplemented 10% FBS. Human lung carcinoma cell line A549 was cultured in DMEM+2 mM glutamine+10% FBS. ER positive, estrogen independent for growth MCF7/LCC9 cell line was cultured in IMEM (Biofluids) supplemented with 5% charcoal stripped calf serum. Medulloblastoma cell line DAOY was cultured in Eagle's MEM supplemented with 10% FBS. All cell lines except MDA-MB-321 were cultured at 37° C. in 5% CO2, and the medium was replaced every 2-3 days. MDA-MB-231 was grown in Leibovitz's L-15 medium with 10% FBS without CO2 supplementation.
Cell death assay. The extent of cell death and toxicity of the compounds was tested by XTT assay. The cells were plated in their respective media in 96-well plates. […] The plate was incubated for 4 hours at 37° C. and then the absorbance was read at a wavelength of 490 nm.
The effect of NT015 and NT016 on the growth of a variety of tumor cells was evaluated. […]

HepG2 cells [1] = assay: Caspase assay (Caspase-Glo 3/7) on HepG2 cells; type: cell-based, human; conditions: 48 hours after addition, 100 uM, n=4
Method: Caspase Assay. Caspase assay was conducted by using the Promega Caspase-Glo 3/7 kit. 100 ul of caspase-Glo 3/7 reagent was added to each well of a white walled 96-well plate containing 100 ul of blank, negative control cells or treated cells in culture medium. The contents of the wells were mixed gently and incubated at room temperature for 30 minutes to 3 hours. The luminescence of each sample was read in a luminometer.

MCF7/LCC9 cell line = assay: XTT cell death assay, MCF7/LCC9 cells; type: cell-based; conditions: Homo sapiens, # = 200 uM not tested, read-out: LCC-9: concentration with effect on cancer cells
Method: as §1
(§2) Cell death assay. The extent of cell death and toxicity of the compounds was tested by XTT assay. The cells were plated in their respective media in 96-well plates. The compounds and were added in dilutions ranging from 0.01 nM to 200 μM and for control DMSO to 1% was used. […] For XTT assay first the medium in the wells was replaced with 200 μs of fresh phenol-red free medium. Then 50 μls of XTT solution with PMS was added to the wells. The XTT solution was made adding 0.02% phenazine methosulfate (Sigma-Aldrich #P9625) to 1 mg/ml XTT sodium salt made up in phenol-red free RPMI (Sigma-Aldrich #X4636). The plate was incubated for 4 hours at 37° C. and then the absorbance was read at a wavelength of 490 nm.

PC3 cells = assay: XTT cell death assay, PC3 prostate carcinoma cells; type: cell-based; conditions: Homo sapiens, PC-3, # = 200 uM not tested, read-out: PC3: concentration with effect on cancer cells
Method: as §1, §2

A549 xenograft = assay: Zebrafish xenograft assay with implanted A549 cells; type: in vivo; conditions: zebrafish embryos, 100 uM, 4 days after implantation, n=10 to 15
Method: Zebrafish xenograft assay. Zebrafish embryos with implanted A549 cells were imaged within 6 hours of cell injection (day 0) and treated with compounds. At 4 days post injection (day 4) the embryos were imaged again. The area of fluorescence due to the labeled cells was measured using Image J at day 0 (area 0) and day 4 (area 4). The change in area was calculated by subtracting area 0 from area 4 (=d area). D area was then normalized for the size of the initial tumor by dividing d area by area 0 (=d area/area 0).

DAOY = assay: XTT cell death assay, DAOY medulloblastoma cells; type: cell-based; conditions: Homo sapiens, # = 200 uM not tested, read-out: DAOY: concentration with effect on cancer cells
Method: as §1, §2

HepG2 cells [2] = assay: XTT cell death assay, HepG2 hepatocarcinoma cells; type: cell-based, human; conditions: Homo sapiens, HepG2, *Greater than 50% inhibition, dilutions 0.01 nM to 200 μM, usually 24 or 48 hours, read-out: HepG2* (liver cancer): concentration with greater than 50% inhibition
Method: as §1, with “FBS.” for “FBS. All cell lines except MDA-MB-321 were cultured at 37° C. in 5% CO2, and the medium was replaced every 2-3 days. MDA-MB-231 was grown in Leibovitz's L-15 medium with 10% FBS without CO2 supplementation.”
as §2, with “#X4636).” for “#X4636). The plate was incubated for 4 hours at 37° C. and then the absorbance was read at a wavelength of 490 nm.”

A549 = assay: XTT cell death assay, A549 lung carcinoma cells; type: cell-based; conditions: Homo sapiens, # = 200 uM not tested, read-out: A549: concentration with effect on cancer cells
Method: as §1, §2

Compound | inhibition of liver, lung, breast, prostate and CNS cancer cell growth (tumor cells) | caspase activity (fluorescence ratio to untreated cells) (HepG2 cells [1]) | minimal effective concentration (MCF7/LCC9 cell line) | minimal effective concentration (PC3 cells) | area of A549 xenograft implant (A549 xenograft) | minimal effective concentration (DAOY) | minimal effective concentration (HepG2 cells [2]) | minimal effective concentration (A549)
CC(N)Cc1ccc2ccccc2c1 (stereo not drawn) [NT015, 1-(naphthalen-2-yl)propan-2-amine] | potent inhibitors | increase in caspase activity |  |  |  |  |  | 
CC(Cc1cccc2ccccc12)NCCc1ccc(O)cc1 (stereo not drawn) [NT016, 4-(2-((1-(naphthalen-1-yl)propan-2-yl)amino)ethyl)phenol] | potent inhibitors |  | 100 µM | 200 µM | efficacy of reducing the area of xenograft significantly | 100 µM | 100 µM | 100 µM

Reference: patent US20190337889A1, “COMPOSITIONS AND METHODS OF REGULATING CANCER RELATED DISORDERS AND DISEASES” (ONCO THERAPIES LLC, priority 2016, published 2019)
